Holding throughout (type): in vivo
The subject of data set [1] is Setaria viridis. Put plainly: Pre-emergence test. Particulars: 3 weeks after treatment. The protocol:
(§1) To evaluate their herbicidal activity, compounds according to the invention are tested using a representative range of plants: SETVI Setaria viridis The pre-emergence tests involve spraying a liquid formulation of the compound onto the soil in which the seeds of the plant species mentioned above has recently been sown. The soil used in the tests is a prepared horticultural loam. The formulations used in the tests are prepared from solutions of the test compounds in acetone containing 0.4% by weight of an alkylphenol/ethylene oxide condensate available under the trade mark TRITON X-155. These acetone solutions are diluted with water and the resulting formulations applied at dosage levels corresponding to 0.025 kg, 0.100 kg or 0.400 kg of active material per hectare in a volume equivalent to 900 litres per hectare. In these tests untreated sown soil are used as controls. From 2 to 4 weeks after treatment, the tests are terminated and each pot is examined and rated according to the rating system set forth below: [table]

Data set [2] concerns Galium aparine. Put plainly: Pre-emergence test. As to conditions: 3 weeks after treatment. The protocol: as §1, with “GALAP Galium aparine” for “SETVI Setaria viridis”
The subject of data set [3] is weeds. As to the kind of experiment: Overall weed control in pre- and post-emergence application. Particulars: dose of 0.1 kg/ha. The protocol: (§2) The pre-emergence tests involve spraying a liquid formulation of the compound onto the soil in which the seeds of the plant species mentioned above has recently been sown. The soil used in the tests is a prepared horticultural loam. The formulations used in the tests are prepared from solutions of the test compounds in acetone containing 0.4% by weight of an alkylphenol/ethylene oxide condensate available under the trade mark TRITON X-155. These acetone solutions are diluted with water and the resulting formulations applied at dosage levels corresponding to 0.025 kg, 0.100 kg or 0.400 kg of active material per hectare in a volume equivalent to 900 litres per hectare. In these tests untreated sown soil are used as controls. […] These acetone solutions are diluted with water and the resulting formulations applied at dosage levels equivalent of about 0.1 to 0. 4 kg per hectare of test compound per pot. After spraying the plants are placed on greenhouse benches and are cared for in the usual manner, commensurate with conventional greenhouse practices. From 2 to 4 weeks after treatment, the seedling plants are examined and rated according to the rating system provided above.

For data set [4], the system named is Triticum aestivum. Put plainly: Pre-emergence test. As to conditions: 3 weeks after treatment. The protocol: as §1, with “TRZAW Triticum aestivum” for “SETVI Setaria viridis”
Data set [5] relates to Hordeum vulgare. Put plainly: Pre-emergence test. As to conditions: 3 weeks after treatment. The protocol: as §1, with “HORVW Hordeum vulgare” for “SETVI Setaria viridis”
The test system of data set [6] is Abutilon theophrasti. As to the kind of experiment: Post-emergence test. As to conditions: 2-4 weeks after treatment. The protocol: To evaluate their herbicidal activity, compounds according to the invention are tested using a representative range of plants: ABUTH Abutilon theophrasti [table] […] These acetone solutions are diluted with water and the resulting formulations applied at dosage levels equivalent of about 0.1 to 0. 4 kg per hectare of test compound per pot. After spraying the plants are placed on greenhouse benches and are cared for in the usual manner, commensurate with conventional greenhouse practices. From 2 to 4 weeks after treatment, the seedling plants are examined and rated according to the rating system provided above.

For data set [7], the system named is soybeans, wheat. Put plainly: Crop selectivity in pre- and post-emergence application. As to conditions: dose of 0.1 kg/ha. The protocol:
as §2

For data set [8], the system named is Matricaria inodora. Put plainly: Pre-emergence test. Particulars: 3 weeks after treatment. The protocol: as §1, with “MATIN Matricaria inodora” for “SETVI Setaria viridis”

For `Cn1nc(C(F)(F)F)cc1Oc1cc(C#N)cc(-c2cc(C(F)(F)F)nn2C)n1` [Example 3, 4-Cyano-2-(1-methyl-3-trifluoromethylpyrazol-5-yloxy)-6-(1-methyl-3-trifluoromethylpyrazol-5-yl)pyridine], the figures for the SETVI herbicidal rating in data set [1] (0.025 kg/ha), in data set [1] (0.100 kg/ha) and in data set [1] (0.400 kg/ha) were 3 (3 - Moderate effect), 5 (5 - Definite injury) and 8 (8 - Approaching complete kill), respectively. The GALAP herbicidal rating in data set [2] (0.025 kg/ha) is 1 (1 - Trace effect); in data set [2] (0.100 kg/ha) it was 4 (4 - Injury); in data set [2] (0.400 kg/ha), 8 (8 - Approaching complete kill). Also, the “overall levels of weed control” value in data set [3] was “good overall levels of weed control”. Besides, the figures for the TRZAW herbicidal rating in data set [4] (0.025 kg/ha), in data set [4] (0.100 kg/ha) and in data set [4] (0.400 kg/ha) were 0 (0 - No effect), 0 (0 - No effect) and 4 (4 - Injury), respectively. Further, the HORVW herbicidal rating in data set [5] (0.025 kg/ha) is 2 (2 - Slight effect); in data set [5] (0.100 kg/ha), 3 (3 - Moderate effect); in data set [5] (0.400 kg/ha) it was 5 (5 - Definite injury). The results for the ABUTH herbicidal rating in data set [6] (0.1 kg/ha) and in data set [6] (0.4 kg/ha) were 4 (4 - Injury) and 5 (5 - Definite injury), respectively. Also, the “tolerance in soybeans and wheat” value in data set [7] is listed as “well tolerated”. Further, the MATIN herbicidal rating in data set [8] (0.025 kg/ha), in data set [8] (0.100 kg/ha) and in data set [8] (0.400 kg/ha) was 9 (9 - Complete kill) each time.

With `Cc1cnc(-c2cc(C(F)(F)F)nn2C)nc1Oc1cc(C(F)(F)F)nn1C` [Example 4, 2-(1-Methyl-3-trifluoromethylpyrazol-5-yl)-6-(1-methyl-3-trifluoromethylpyrazol-5-yloxy)-5-methylpyrimidine], the SETVI herbicidal rating is given as 8 (8 - Approaching complete kill) in data set [1] (0.025 kg/ha), 9 (9 - Complete kill) in data set [1] (0.100 kg/ha) and 9 (9 - Complete kill) in data set [1] (0.400 kg/ha). Moreover, the GALAP herbicidal rating in data set [2] (0.025 kg/ha) was 1 (1 - Trace effect); in data set [2] (0.400 kg/ha), 8 (8 - Approaching complete kill). Also, the “overall levels of weed control” value in data set [3] is reported as “good overall levels of weed control”. Besides, the TRZAW herbicidal rating in data set [4] (0.025 kg/ha) is recorded as 1 (1 - Trace effect); in data set [4] (0.100 kg/ha), 2 (2 - Slight effect); in data set [4] (0.400 kg/ha) it was 4 (4 - Injury). In addition, the values for the HORVW herbicidal rating in data set [5] (0.025 kg/ha), in data set [5] (0.100 kg/ha) and in data set [5] (0.400 kg/ha) were 2 (2 - Slight effect), 4 (4 - Injury) and 5 (5 - Definite injury), respectively. The ABUTH herbicidal rating in data set [6] (0.1 kg/ha) is 6 (6 - Herbicidal effect); in data set [6] (0.4 kg/ha), 7 (7 - Good herbicidal effect). Moreover, in data set [7], the “tolerance in soybeans and wheat” value was “well tolerated”. The MATIN herbicidal rating was 8 (8 - Approaching complete kill) in data set [8] (0.025 kg/ha), 8 (8 - Approaching complete kill) in data set [8] (0.100 kg/ha) and 9 (9 - Complete kill) in data set [8] (0.400 kg/ha).

As for `Cc1cc(Oc2cccc(C(F)(F)F)c2)nc(-c2cc(C(F)(F)F)nn2C)c1` [Example 63], the figures for the SETVI herbicidal rating in data set [1] (0.025 kg/ha), in data set [1] (0.100 kg/ha) and in data set [1] (0.400 kg/ha) were 1 (1 - Trace effect), 5 (5 - Definite injury) and 9 (9 - Complete kill), respectively. Besides, the GALAP herbicidal rating is given as 0 (0 - No effect) in data set [2] (0.025 kg/ha), 0 (0 - No effect) in data set [2] (0.100 kg/ha) and 1 (1 - Trace effect) in data set [2] (0.400 kg/ha). For the same compound, the TRZAW herbicidal rating in data set [4] (0.025 kg/ha), in data set [4] (0.100 kg/ha) and in data set [4] (0.400 kg/ha) was 0 (0 - No effect) in each case. The HORVW herbicidal rating in data set [5] (0.025 kg/ha) was 0 (0 - No effect); in data set [5] (0.100 kg/ha), 0 (0 - No effect); in data set [5] (0.400 kg/ha), 2 (2 - Slight effect). Besides, the ABUTH herbicidal rating in data set [6] (0.1 kg/ha) and in data set [6] (0.4 kg/ha) was 4 (4 - Injury) throughout. The MATIN herbicidal rating is given as 6 (6 - Herbicidal effect) in data set [8] (0.100 kg/ha) and 9 (9 - Complete kill) in data set [8] (0.400 kg/ha).

(Values after patent publication US6528456B2, “Herbicidal 2-pyrazolyl-6-aryloxypyri(mi)dines” (BASF Aktiengesellschaft, priority 1999, dated 2003).)
